Results from patent US8394971B2, “Indole derivatives as selective androgen receptor modulators (SARMS)” (Janssen Pharmaceutica N.V., priority 2004, dated 2013).

What follows are molecules tested on testosterone-enhanced ventral prostate and seminal vesicle weights in castrated male Sprague Dawley rats (assay: Ventral Prostate and Seminal Vesicle Weight In Vivo Assay). Conditions: immature castrated rats; once daily for five days, usually orally at 40 mg/kg, with testosterone propionate 2 mg/kg s.c.
Design: species or system rat
Protocol: Immature (approximately 50 g) castrated male Sprague Dawley rats (Charles River) were treated once daily for five days with test compound (usually given orally at 40 mg/kg in a volume of 0.3 mL, in 30% cyclodextrin or 0.5% methylcellulose vehicle) and with testosterone propionate (given subcutaneously by injection at the nape of the neck at 2 mg/kg, in a volume of 0.1 mL in sesame oil). On the sixth day, the rats were euthanized by asphyxiation in carbon dioxide. Ventral prostates and seminal vesicles were removed and their wet weights determined.
A test compound was said to be “active” if the non weight adjusted prostate weight was ≦40 mg or the % Inhibition prostate weight, body weight adjusted was ≧40% @2 mg/day dosage.

Row | Structure (SMILES) | active / inactive (inhibition of testosterone-enhanced prostate weight)
1 | CCSCC(C)(O)c1c(C)c2cc(C#N)c(C(F)(F)F)cc2n1C (single isomer, unassigned) [compound 317] | inactive
2 | CC[S+]([O-])CC(C)(O)c1[nH]c2cc(C(F)(F)F)c(C#N)cc2c1C (mixture of isomers) [compound 245] | inactive
3 | CC(O)(COc1ccc(C#N)c(C(F)(F)F)c1)c1cc2cc(C#N)c(C(F)(F)F)cc2[nH]1 (stereo not drawn) [Compound #429, 2-[2-(4-Cyano-3-trifluoromethyl-phenoxy)-1-hydroxy-1-methyl-ethyl]-6-trifluoromethyl-1H-indole-5-carbonitrile] | inactive
4 | CC(O)(COc1cccc([N+](=O)[O-])c1)c1cc2cc(C#N)c(C(F)(F)F)cc2[nH]1 (stereo not drawn) [Compound #428, 2-[1-Hydroxy-1-methyl-2-(3-nitro-phenoxy)-ethyl]-6-trifluoromethyl-1H-indole-5-carbonitrile] | inactive
5 | N#Cc1cc2cc(C(O)(C(F)(F)F)C(F)(F)F)[nH]c2cc1C(F)(F)F [compound 357] | active
6 | CCSCC(C)(O)c1[nH]c2cc(C(F)(F)F)c(C#N)cc2c1I (single isomer, unassigned) [compound 349] | active
7 | CC(O)(COc1ccc(C#N)cc1)c1cc2cc(C#N)c(C(F)(F)F)cc2[nH]1 (stereo not drawn) [Compound #426, 2-[2-(4-Cyano-phenoxy)-1-hydroxy-1-methyl-ethyl]-6-trifluoromethyl-1H-indole-5-carbonitrile] | inactive
8 | CCSCC(C)(O)c1cc2cc(C#N)c(C)cc2[nH]1 (racemic) [compound 446] | inactive
9 | CC(O)(c1cc2cc(C#N)c(C(F)(F)F)cc2[nH]1)C(F)(F)F (stereo not drawn) [Compound #335, 2-(2,2,2-Trifluoro-1-hydroxy-1-methyl-ethyl)-6-trifluoromethyl-1H-indole-5-carbonitrile] | active
10 | CCSCC(C)(O)c1cc2cc(C#N)c(Cl)cc2[nH]1 (racemic) [compound 224] | active
11 | CCSCC(C)(O)c1cc2cc(Cl)c(C#N)cc2[nH]1 (single isomer, unassigned) [compound 228] | inactive
12 | CC(C)(O)c1[nH]c2cc(C(F)(F)F)c(C#N)cc2c1Cl [compound 287] | inactive
13 | CCSCC(O)(c1cc2cc(C#N)c(C(F)(F)F)cc2[nH]1)C(F)(F)F (racemic) [compound 327] | active
14 | CCSCC(C)(O)c1cc2cc(N)c(C(F)(F)F)cc2[nH]1 (stereo not drawn) [compound 166] | inactive
15 | CC(O)(c1[nH]c2cc(C(F)(F)F)c(C#N)cc2c1Cl)C(F)(F)F (single isomer, unassigned) [compound 345] | active
16 | CC(C)(O[Si](C)(C)C)c1cc2cc(Cl)c(C(F)(F)F)cc2n1S(C)(=O)=O [compound 270] | inactive
17 | CC(C)(O)c1[nH]c2cc(C(F)(F)F)c(C#N)cc2c1Br [compound 288] | active
18 | CCSCC(C)(O)c1cc2nc(C#N)ccc2[nH]1 (racemic) [compound 6] | inactive
19 | CCSCC(C)(O)c1[nH]c2cc(C(F)(F)F)c([N+](=O)[O-])cc2c1I (single isomer, unassigned) [compound 244] | active
20 | CCSCC(C)(O)c1cc2cc(Cl)ccc2[nH]1 (racemic) [compound 353] | inactive
21 | CCS(=O)(=O)CC(C)(O)c1cc2cc([N+](=O)[O-])c(C(F)(F)F)cc2[nH]1 (stereo not drawn) [compound 175] | active
22 | CCSCC(O)(CSCC)c1cc2cc([N+](=O)[O-])c(C(F)(F)F)cc2[nH]1 [compound 13] | inactive
23 | CCSCC(C)(CO)c1cc2cc([N+](=O)[O-])c(C(F)(F)F)cc2[nH]1 (stereo not drawn) [compound 11] | inactive
24 | CC(C)(O)c1[nH]c2cc(C(F)(F)F)c(Cl)cc2c1Cl [compound 282] | inactive
25 | CCSCC(C)(O)Cc1cc2cc([N+](=O)[O-])c(C(F)(F)F)cc2[nH]1 (stereo not drawn) [compound 10] | inactive
26 | CC(C)(O)c1[nH]c2cc(C(F)(F)F)c(C#N)cc2c1I [compound 278] | active

Row | Structure (SMILES) | active / inactive (inhibition of testosterone-enhanced prostate weight)
27 | CC(O)(c1[nH]c2cc(C(F)(F)F)c(C#N)cc2c1I)C(F)(F)F (racemic) [compound 330] | active
28 | CCS(=O)(=O)CC(C)(O)c1cc2cc(C#N)c(C(F)(F)F)cc2[nH]1 (single isomer, unassigned) [compound 397] | inactive
29 | CC(C)(O)c1cc2cc([N+](=O)[O-])c(C(F)(F)F)cc2n1S(C)(=O)=O [compound 273] | inactive
30 | CCSCC(C)(O)c1cc2cc(C#N)c(C(F)(F)F)cc2n1COC (racemic) [compound 322] | inactive
31 | CCS(=O)(=O)CC(C)(O)c1cc2cc([N+](=O)[O-])c(C(F)(F)F)cc2n1C (single isomer, unassigned) [compound 232] | active
32 | Cc1c(C(C)(C)O)[nH]c2cc(C(F)(F)F)c(C#N)cc12 [compound 289] | active
33 | CSCC(O)c1cc2cc(C#N)c(C(F)(F)F)cc2[nH]1 (racemic) [compound 408] | inactive
34 | CC(O)(C[S+]([O-])c1ccc(F)cc1)c1cc2cc(Cl)c(C(F)(F)F)cc2[nH]1 (stereo not drawn) [compound 113] | inactive
35 | CC(C)(O)c1[nH]c2cc(C(F)(F)F)c([N+](=O)[O-])cc2c1Br [compound 277] | active
36 | CCSCC(O)c1[nH]c2cc(C(F)(F)F)c(C#N)cc2c1Br (racemic) [compound 413] | inactive
37 | CC(C)(O)c1[nH]c2cc(C(F)(F)F)c(C#N)cc2c1C#N [compound 295] | inactive
38 | CC(C)(O)c1cc2cc(Cl)c(Cl)cc2[nH]1 [compound 405] | inactive
39 | CC[S+]([O-])CC(C)(O)c1[nH]c2cc(C(F)(F)F)c(C#N)cc2c1C (mixture of isomers) [compound 319] | active
40 | CC(C)(O[Si](C)(C)C)c1cc2cc([N+](=O)[O-])c(C(F)(F)F)cc2n1S(C)(=O)=O [compound 269] | inactive
41 | CSCC(C)(O)c1cc2cc(Cl)c(C(F)(F)F)cc2n1S(C)(=O)=O (stereo not drawn) [compound 134] | inactive
42 | CCSCC(C)(O)c1[nH]c2cc(C(F)(F)F)c(C#N)cc2c1I (racemic) [compound 324] | inactive
43 | CC(O)(C[S+]([O-])CC(F)(F)F)c1cc2cc([N+](=O)[O-])c(C(F)(F)F)cc2[nH]1 (mixture of isomers) [compound 205] | active
44 | C#Cc1c(C(C)(O)CSCC)[nH]c2cc(C(F)(F)F)c(C#N)cc12 (racemic) [compound 326] | inactive
45 | CC(C)(O)c1[nH]c2cc(C(F)(F)F)c([N+](=O)[O-])cc2c1Cl [compound 275] | active
46 | CCSCC(C)(O)c1[nH]c2cc(C(F)(F)F)c(C#N)cc2c1CC (racemic) [compound 344] | active
47 | CCSCC(C)(O)c1[nH]c2cc(C(F)(F)F)c([N+](=O)[O-])cc2c1I (single isomer, unassigned) [compound 241] | inactive
48 | CCSCC(C)(O)c1cc2cc(C#N)c(C(F)(F)F)cc2n1CC#N (racemic) [compound 323] | inactive
49 | CCSCC(C)(O)c1cc2cc(C#N)c(OC)cc2[nH]1 (racemic) [compound 445] | inactive
50 | CCS(=O)(=O)CC(C)(O)c1cc2cc(Cl)c(C(F)(F)F)cc2[nH]1 (racemic) [compound 404] | active
51 | CC(O)(c1cc2cc(C#N)c(C(F)(F)F)cc2n1CC#N)C(F)(F)F (racemic) [compound 331] | active
